Assay results as given in PMC9403976, “Elucidating the path to Plasmodium prolyl-tRNA synthetase inhibitors that overcome halofuginone resistance” (Nature Communications, 2022).
Values joined by “and” are separate entries in the source; they are usually repeats but may differ in a detail not shown here. Equal entries are not always repeated. Where two headings read alike, the source gives them in different places.

Assays:
[1] = system: HFGR-I P. falciparum (elevated proline homeostasis and PfcProRS^L482H); assay: P. falciparum ABS growth assay, SYBR Green, 72 h, HFGR-I parasites; assay type: cell-based, Plasmodium falciparum
Summary of the method: (§1)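 Growth inhibition of the resistant and induced Dd2 lines is measured over 72 h in triplicate dose-response, starting at 1% parasitemia and 1% hematocrit. SYBR Green 1 staining gives the fluorescence readout, normalized between 10 μM dihydroartemisinin and no-compound wells.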

P. falciparum Dd2-2D4 = assay: P. falciparum asexual blood stage (ABS) growth assay, SYBR Green, 72 h, wild-type parasites; assay type: cell-based, Plasmodium falciparum; conditions: Plasmodium falciparum, DD2; SI Fig 16b; values on -log scale; read-out: ABS - Dd2-2D4 (converted)
HsProRS = HsProRS (Homo sapiens, UniProt P07814); assay: TR-FRET ligand displacement assay with tracer MAT379 (CoraFluor-1-Halo and anti-His6 antibody formats); assay type: binding; set-up: made in house; host or cells: E. coli SoluBL-21; conditions: for TR-FRET dose-response, normalized signal (SI Fig 11): individual replicates
Sequence of HsProRS (P07814 996-1512): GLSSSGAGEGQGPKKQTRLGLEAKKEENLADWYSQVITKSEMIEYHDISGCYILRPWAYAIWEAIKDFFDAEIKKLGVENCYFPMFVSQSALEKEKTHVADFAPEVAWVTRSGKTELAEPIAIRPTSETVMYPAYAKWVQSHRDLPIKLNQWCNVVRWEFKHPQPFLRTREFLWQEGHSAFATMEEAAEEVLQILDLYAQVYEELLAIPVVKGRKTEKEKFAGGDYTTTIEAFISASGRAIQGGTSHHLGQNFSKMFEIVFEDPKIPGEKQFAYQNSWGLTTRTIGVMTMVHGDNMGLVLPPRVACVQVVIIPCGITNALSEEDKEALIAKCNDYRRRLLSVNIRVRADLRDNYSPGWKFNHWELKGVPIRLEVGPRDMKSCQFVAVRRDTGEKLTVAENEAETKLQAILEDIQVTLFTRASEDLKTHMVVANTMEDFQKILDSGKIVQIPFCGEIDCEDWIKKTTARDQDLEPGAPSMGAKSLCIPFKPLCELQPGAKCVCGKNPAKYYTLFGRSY

PfcProRS = target: T1, PfcProRS (Plasmodium falciparum, UniProt Q8I5R7); assay type: binding; conditions: single replicates
T1 construct: made in house; host or cells: E. coli SoluBL-21
T1 sequence (Q8I5R7 249-746): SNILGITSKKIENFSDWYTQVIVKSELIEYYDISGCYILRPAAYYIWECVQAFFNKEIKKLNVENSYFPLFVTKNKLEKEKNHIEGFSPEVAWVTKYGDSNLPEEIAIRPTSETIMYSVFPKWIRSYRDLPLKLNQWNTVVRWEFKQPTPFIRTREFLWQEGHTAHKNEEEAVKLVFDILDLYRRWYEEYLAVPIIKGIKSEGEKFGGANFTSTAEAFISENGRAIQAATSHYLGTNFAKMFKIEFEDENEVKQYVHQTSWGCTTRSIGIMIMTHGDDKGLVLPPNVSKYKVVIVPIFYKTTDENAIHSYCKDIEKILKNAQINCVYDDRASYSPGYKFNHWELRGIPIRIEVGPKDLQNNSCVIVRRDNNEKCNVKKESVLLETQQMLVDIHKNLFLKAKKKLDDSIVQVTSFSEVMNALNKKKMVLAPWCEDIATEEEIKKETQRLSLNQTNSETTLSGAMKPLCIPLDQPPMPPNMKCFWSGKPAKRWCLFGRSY

[2] = system: halofuginone-induced P. falciparum (elevated proline homeostasis); assay: P. falciparum ABS growth assay, SYBR Green, 72 h, halofuginone-induced parasites; assay type: cell-based, Plasmodium falciparum
Summary of the method: as §1

Q: Which results are given for O=C(NC1Cc2ccccc2C1)c1nccnc1NC(=O)N1CCC(CO)CC1 [compound 11]?
A: dose-response value, Replicates 1-3 (SI Fig 2f) ([1]; Log[inhibitor] (M) -5.000): 0; EC50 ([1]; Plasmodium falciparum, DD2, read-out: Dd2 (EC50 [nM]) HFGR1 mean): 1910 nM; EC50 (P. falciparum Dd2-2D4): 0.711 µM; Kd (HsProRS; HsProRS (KD [nM]) + 100 μM proline mean, + 100 μM proline): 8.42 nM; Kd (HsProRS; HsProRS (KD [nM]) mean, no added proline/ATP (-)): 265 nM; normalized TR-FRET ligand displacement signal, dose-response replicates (SI Fig 6) (HsProRS; Log[inhibitor] (M) -5.000): 7.29E-02 and 8.36E-02 and 3.81E-02; TR-FRET dose-response, normalized signal (SI Fig 11) (HsProRS; Log[inhibitor] (M) -5.000): -1.28E-03 and -3.43E-02 and 2.65E-03; normalized TR-FRET ligand displacement signal, dose-response replicates (SI Fig 6) (HsProRS; Log[inhibitor] (M) -5.301): 1.45E-01 and 1.02E-01 and 9.61E-02; TR-FRET dose-response, normalized signal (SI Fig 11) (HsProRS; Log[inhibitor] (M) -5.301): 2.77E-02 and 5.85E-02 and -1.28E-02; normalized TR-FRET ligand displacement signal, dose-response replicates (SI Fig 6) (HsProRS; Log[inhibitor] (M) -5.601): 2.34E-01 and 2.43E-01 and 2.83E-01; TR-FRET dose-response, normalized signal (SI Fig 11) (HsProRS; Log[inhibitor] (M) -5.601): 8.35E-02 and 4.98E-02 and 9.15E-02; normalized TR-FRET ligand displacement signal, dose-response replicates (SI Fig 6) (HsProRS; Log[inhibitor] (M) -5.904): 4.84E-01 and 4.37E-01 and 4.52E-01; TR-FRET dose-response, normalized signal (SI Fig 11) (HsProRS; Log[inhibitor] (M) -5.904): 2.07E-01 and 2.25E-01 and 2.22E-01; normalized TR-FRET ligand displacement signal, dose-response replicates (SI Fig 6) (HsProRS; Log[inhibitor] (M) -6.208): 6.54E-01 and 5.62E-01 and 6.80E-01; TR-FRET dose-response, normalized signal (SI Fig 11) (HsProRS; Log[inhibitor] (M) -6.208): 3.66E-01 and 3.44E-01 and 3.52E-01; normalized TR-FRET ligand displacement signal, dose-response replicates (SI Fig 6) (HsProRS; Log[inhibitor] (M) -6.509): 6.98E-01 and 7.35E-01 and 8.42E-01; TR-FRET dose-response, normalized signal (SI Fig 11) (HsProRS; Log[inhibitor] (M) -6.509): 5.64E-01 and 5.20E-01 and 5.33E-01; normalized TR-FRET ligand displacement signal, dose-response replicates (SI Fig 6) (HsProRS; Log[inhibitor] (M) -6.796): 1.06E+00 (2×) and 1.05E+00; TR-FRET dose-response, normalized signal (SI Fig 11) (HsProRS; Log[inhibitor] (M) -6.796): 7.28E-01 and 6.74E-01 and 6.24E-01; normalized TR-FRET ligand displacement signal, dose-response replicates (SI Fig 6) (HsProRS; Log[inhibitor] (M) -7.108): 8.92E-01 and 1.10E+00 and 9.75E-01; TR-FRET dose-response, normalized signal (SI Fig 11) (HsProRS; Log[inhibitor] (M) -7.108): 7.19E-01 and 7.66E-01 and 7.53E-01; normalized TR-FRET ligand displacement signal, dose-response replicates (SI Fig 6) (HsProRS; Log[inhibitor] (M) -7.409): 9.25E-01 and 9.47E-01 and 1.04E+00; TR-FRET dose-response, normalized signal (SI Fig 11) (HsProRS; Log[inhibitor] (M) -7.409): 8.67E-01 and 8.81E-01 and 8.44E-01; normalized TR-FRET ligand displacement signal, dose-response replicates (SI Fig 6) (HsProRS; Log[inhibitor] (M) -7.710): 9.81E-01 and 9.55E-01 and 9.75E-01; TR-FRET dose-response, normalized signal (SI Fig 11) (HsProRS; Log[inhibitor] (M) -7.710): 9.29E-01 and 8.46E-01 and 9.70E-01; normalized TR-FRET ligand displacement signal, dose-response replicates (SI Fig 6) (HsProRS; Log[inhibitor] (M) -8.000): 9.65E-01 and 1.05E+00 and 9.80E-01; TR-FRET dose-response, normalized signal (SI Fig 11) (HsProRS; Log[inhibitor] (M) -8.000): 9.63E-01 and 9.74E-01 and 9.23E-01; normalized TR-FRET ligand displacement signal, dose-response replicates (SI Fig 6) (HsProRS; Log[inhibitor] (M) -8.301): 1.00E+00 and 9.43E-01 and 1.07E+00; TR-FRET dose-response, normalized signal (SI Fig 11) (HsProRS; Log[inhibitor] (M) -8.301): 9.20E-01 and 9.31E-01 and 8.90E-01; normalized TR-FRET ligand displacement signal, dose-response replicates (SI Fig 6) (HsProRS; Log[inhibitor] (M) -8.602): 1.02E+00 (2×) and 9.43E-01; TR-FRET dose-response, normalized signal (SI Fig 11) (HsProRS; Log[inhibitor] (M) -8.602): 8.99E-01 and 8.64E-01 and 8.60E-01; normalized TR-FRET ligand displacement signal, dose-response replicates (SI Fig 6) (HsProRS; Log[inhibitor] (M) -9.000): 9.86E-01 and 1.02E+00 and 1.11E+00; TR-FRET dose-response, normalized signal (SI Fig 11) (HsProRS; Log[inhibitor] (M) -9.000): 9.04E-01 and 9.68E-01 and 8.68E-01; normalized TR-FRET ligand displacement signal, dose-response replicates (SI Fig 6) (HsProRS; Log[inhibitor] (M) -9.301): 1.03E+00 (2×) and 9.04E-01; TR-FRET dose-response, normalized signal (SI Fig 11) (HsProRS; Log[inhibitor] (M) -9.301): 8.86E-01 and 9.16E-01 and 9.33E-01; dose-response signal (normalized), SI Fig 8 (PfcProRS; Log[inhibitor] (M) -5.000): 5.60E-02 and 7.55E-02 and 4.27E-02; dose-response signal (normalized), SI Fig 8 (PfcProRS; Log[inhibitor] (M) -5.301): 7.92E-02 and 2.41E-02 and 4.88E-02; dose-response signal (normalized), SI Fig 8 (PfcProRS; Log[inhibitor] (M) -5.601): 9.80E-02 and 1.87E-03 and 7.44E-02; dose-response signal (normalized), SI Fig 8 (PfcProRS; Log[inhibitor] (M) -5.904): 2.50E-01 and 1.37E-01 and 2.03E-01; dose-response signal (normalized), SI Fig 8 (PfcProRS; Log[inhibitor] (M) -6.208): 3.69E-01 and 3.33E-01 and 3.17E-01; dose-response signal (normalized), SI Fig 8 (PfcProRS; Log[inhibitor] (M) -6.509): 6.08E-01 and 6.11E-01 and 6.37E-01; dose-response signal (normalized), SI Fig 8 (PfcProRS; Log[inhibitor] (M) -6.796): 7.29E-01 and 7.94E-01 and 7.90E-01; dose-response signal (normalized), SI Fig 8 (PfcProRS; Log[inhibitor] (M) -7.108): 8.18E-01 and 8.62E-01 and 9.40E-01; dose-response signal (normalized), SI Fig 8 (PfcProRS; Log[inhibitor] (M) -7.409): 1.03E+00 and 1.01E+00 and 8.87E-01; dose-response signal (normalized), SI Fig 8 (PfcProRS; Log[inhibitor] (M) -7.710): 1.08E+00 and 9.42E-01 and 9.86E-01; dose-response signal (normalized), SI Fig 8 (PfcProRS; Log[inhibitor] (M) -8.000): 1.04E+00 and 9.91E-01 and 1.06E+00; dose-response signal (normalized), SI Fig 8 (PfcProRS; Log[inhibitor] (M) -8.301): 1.09E+00 and 1.02E+00 and 1.00E+00; dose-response signal (normalized), SI Fig 8 (PfcProRS; Log[inhibitor] (M) -8.602): 1.07E+00 and 9.31E-01 and 1.05E+00; dose-response signal (normalized), SI Fig 8 (PfcProRS; Log[inhibitor] (M) -9.000): 8.46E-01 and 1.03E+00 and 9.88E-01; dose-response signal (normalized), SI Fig 8 (PfcProRS; Log[inhibitor] (M) -9.301): 1.09E+00 and 1.13E+00 and 1.15E+00; dose-response value, Replicates 1-3 (SI Fig 2e) ([2]; Log[inhibitor] (M) -5.408): 12; EC50 ([2]; Plasmodium falciparum, DD2, read-out: Dd2 (EC50 [nM]) halofuginone-induced mean): 2470 nM
